From US20250304893A1, “PERFUSABLE 3D TUBULE-ON-CHIP MODEL DERIVED FROM KIDNEY ORGANOIDS WITH IMPROVED DRUG UPTAKE” (President and Fellows of Harvard College, priority 2022, published 2025)

Assays:
[1] = tested on: PTEC-TERT1 tubules; assay: Nephrotoxicity testing: normalized LDH release in luminal perfusate of PTEC-TERT1-on-chip tubules (control chips); assay type: cell-based, human
Description: Before beginning these experiments, three important steps were carried out: (1) all reservoirs were supplied with fresh media, (2) all outlet tubing was cut to the same length, and (3) all chips were subjected to one-way rather than recirculating back to the media reservoir. After each chip within the MCDs was subjected to one-way flow (2 μL/min) for 4 h, a baseline sample of the perfusate was collected from the luminal outlet tubing for 3 h into a 1.6 mL Eppendorf tube. Next, cisplatin (50 μM) or aristolochic acid (25 μM) was delivered basolaterally on chip by manually pipetting each drug solution to the appropriate basal media reservoir. […]
LDH assays were performed according to the manufacturer's instructions (Promega, CytoTox Non-Radioactive Cytotoxicity Assay, G1780). […] 50 μL of stop solution was then added, all bubbles were removed using a syringe, and their absorbance was recorded at 490 nm using a plate reader.
(§1) Normalized LDH release was calculated using the following equation: […]
LDH48 was the recorded absorbance of the 48-h perfusate sample and LDHbaseline was the recorded absorbance of baseline perfusate sample before drug exposure. Normalized LDH release was calculated for each of the tubules individually and plotted into sample groups comparing OPTEC-on-chip and PTEC-TERT1-on-chip models subjected to each drug ±inhibitor. […]

[2] = tested on: OPTEC tubules; conditions: 48 h
Description: Before beginning these experiments, three important steps were carried out: (1) all reservoirs were supplied with fresh media, (2) all outlet tubing was cut to the same length, and (3) all chips were subjected to one-way rather than recirculating back to the media reservoir. After each chip within the MCDs was subjected to one-way flow (2 μL/min) for 4 h, a baseline sample of the perfusate was collected from the luminal outlet tubing for 3 h into a 1.6 mL Eppendorf tube. Next, cisplatin (50 μM) or aristolochic acid (25 μM) was delivered basolaterally on chip by manually pipetting each drug solution to the appropriate basal media reservoir. Next, all tubing was reconnected to the peristaltic pump and allowed to flow at a flow rate of 2 μL/min. After 48 h, another sample of the perfusate was collected from the luminal outlet tubing for 3 h into a 1.6 mL Eppendorf tube. All collected luminal media samples were spun down at 5000 rcf for 5 min to remove cellular debris. Each supernatant was transferred to a fresh tube and stored at −20° C. to run the LDH assay. For samples pre-treated with inhibitors, cimetidine (1 mM) or probenecid (2 mM) was first added to the basal reservoir, delivered basolaterally, and allowed to diffuse through the gelatin-fibrin matrix during recirculating flow for 1 h.
LDH assays were performed according to the manufacturer's instructions (Promega, CytoTox Non-Radioactive Cytotoxicity Assay, G1780). The frozen media samples were thawed at room temperature and used after this first thaw cycle. Next, 50 μL of each media was transferred to a 96-well plate and incubated at 37° C. for 30 min with 50 μL of CytoTox 96 reagent. 50 μL of stop solution was then added, all bubbles were removed using a syringe, and their absorbance was recorded at 490 nm using a plate reader.
as §1
LDH48 was the recorded absorbance of the 48-h perfusate sample and LDHbaseline was the recorded absorbance of baseline perfusate sample before drug exposure. Normalized LDH release was calculated for each of the tubules individually and plotted into sample groups comparing OPTEC-on-chip and PTEC-TERT1-on-chip models subjected to each drug ±inhibitor.
To assess nephrotoxicity, luminal perfusate was collected and LDH analyses were performed. LDH is a cytosolic enzyme found in nearly all cell types, including PTECs, that is released upon cellular damage^29. […] Due to differences in their baseline LDH release among different tubules across the two cell types, a normalized LDH release (LDH release at 48 h relative to baseline release) was determined for each sample, i.e., OPTEC and PTEC-TERT1 tubules without drug, with drug, and with drug and corresponding inhibitors for OCT2 and OAT1/3 transporters, respectively.

[3] = tested on: OPTEC tubules; assay: Diffusional permeability measurement of FITC-inulin through tubules on chip; assay type: cell-based, human; conditions: 4.5 kDa FITC-inulin 100 μg/mL perfused through lumen, OPTEC tubules vs PTEC-TERT1 tubules (control)
Description: The barrier function of the 3D OPTECs- and PTEC-TERT1 s based models was assessed by measuring the diffusional permeability of 4.5 kDa inulin. This compound was selected because is neither up taken up nor secreted by PTECs in-vivo. FITC-labeled inulin (Sigma product F3272) was dissolved in prewarmed LPTEC media at a concentration of 100 μg/mL and perfused through the luminal channel at a rate of 20 μL/min for 3 min and 1.5 μL/min thereafter for 15 min. The diffusion of FITC-inulin was calculated by: […]
Where Pd is the diffusional permeability coefficient, I1 is the average intensity at the initial time point, I2 is the average intensity at time t, Ib is the background intensity taken before perfusion of FITC-inulin, and dis the diameter of the channel^13.

[4] = tested on: UB cells; assay: FITC-inulin retention in perfused epithelialized UB channels on chip (barrier function); assay type: cell-based, human; conditions: perfused epithelialized UB channels vs empty channels, after 1 hour
Description: To fabricate this chip, first the various chip components were assembled (FIG. 17A) and ECM was added to an inner reservoir around a pin and crosslinked. The pin was then removed forming an open channel that can be seeded with cells (FIG. 17B). This design allowed for easy access to the ECM and medium bathing the ECM. After seeding, cells formed confluent monolayers along channel walls within 3-7 days (FIG. 16C,D,E). Perfused epithelialized channels retained FITC-inulin after 1 hour relative to empty channels, indicating barrier function (FIG. 16F,G).

[5] = tested on: OPTECs; assay: 2D OPTEC culture with media supplements to minimize epithelial to mesenchymal transition; assay type: cell-based, human
Description: Organoid-derived PTECs (OPTECs) were cultured in 24-well plates pretreated with 1:20 laminin-511 (Biolamina LN511) in DPBS with calcium and magnesium. For passages 0 and 1, the OPTECs were cultured in REGM media supplemented with 1% FBS. Upon reaching passage 2, the OPTECs were cultured using LPTEC media supplemented with 1% FBS and 10 μM SB431542 (ab120163). Each passage was performed when the cells reached ˜90% confluency by first washing the cells with DPBS without calcium and magnesium, treating with 0.05% trypsin/EDTA for 3-5 min (or until cells lifted off the plate), followed by quenching with culture medium, centrifuging at 240 ref for 4 min, resuspending in culture media, and seeding each laminin pre-treated well at a density of 70,000-100,000 cells/cm^2.
Next, the effects of two different media were tested: (1) modified DMEM F-12 medium described by previous work^14 (LPTEC) and (2) commercially available renal epithelial growth medium (REGM). […] To further promote cell attachment, growth, and proliferation, 1% FBS was added to the media. To minimize epithelial to mesenchymal transition (EMT), the effects of transforming growth factor (TGF-β), bone morphogenic protein 7 (BMP7) and TGF-β/activin/NODAL pathway (SB431542) inhibitors were explored (FIG. 6k-l)^26. […]

Compound: CN/C(=N/CCSCc1nc[nH]c1C)NC#N [cimetidine]
- effect of OCT2 inhibition on normalized LDH release ([1]; cimetidine 1 mM, same cisplatin dose (50 μM)): far less effect
- decrease of normalized LDH release upon OCT2 inhibitor (factor) ([2]; cimetidine 1 mM pre-treatment, 50 μM cisplatin, OPTEC tubules): > 2

Compound: CCCN(CCC)S(=O)(=O)c1ccc(C(=O)O)cc1 [probenecid]
- effect of OAT1/3 inhibition on normalized LDH release ([1]; probenecid 2 mM, same aristolochic acid dose (25 μM)): negligible effect
- normalized LDH release upon OAT1/3 inhibitor ([2]; probenecid 2 mM pre-treatment, 25 μM aristolochic acid, OPTEC tubules): substantially reduced

Compound: FITC-inulin
- diffusional permeability [3]: comparable to that observed for PTEC-TERT1 tubules
- retention of FITC-inulin in channel (barrier function) [4]: retained

Compound: N.N.[Cl][Pt][Cl] [cisplatin]
- normalized LDH response compared to PTEC-TERT1 s ([2]; 50 μM cisplatin delivered basolaterally, OPTEC tubules on chip): significantly higher

Compound: NC(=O)c1ccc(-c2nc(-c3ccc4c(c3)OCO4)c(-c3ccccn3)[nH]2)cc1 [SB431542]
- cell morphology during prolonged cell culture ([5]; 10 μM, OPTECs 2D culture): cuboidal cell morphology
- EMT marker expression in 2D OPTEC monolayers ([5]; SB431542 as media supplement, 2D culture): down regulation of EMT markers

Compound: COc1cccc2c1cc([N+](=O)[O-])c1c(C(=O)O)cc3c(c12)OCO3 [aristolochic acid]
- LDH release compared to PTEC-TERT1 tubules ([2]; 25 μM aristolochic acid delivered basolaterally, OPTEC tubules on chip): significantly higher
